Experimental data taken from patent US20230346670A1, “Prebiotic Oral Care Compositions and Methods” (Colgate-Palmolive Company, priority 2020, published 2023).
Where “and” joins values, the source holds several entries; their conditions need not be identical. Equal entries are not always repeated. Marks after values point to notes of the source that are not given here.

What was measured:
Type in all cases: cell-based
A. actinomycetemcomitans = experiment: Multi-species biofilm composition, absolute abundance (Geq/mL); conditions: repeated rinsing
A. naeslundii = experiment: as above; conditions: repeated rinsing
Summary of the method: (§1)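 Biofilms grown vertically on CAD-HA disks in the Amsterdam Active Adhesion model, 24 h at 37° C., 170 rpm, microaerophilic (6% O2, 7% CO2, 7% H2, 80% N2). Then rinsed 3 times a day for 3 minutes at 1 M substrate for 3 days; PBS (pH 5.7) control. Values are log(Geq/mL), mean ± SD, n = 3.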

P. gingivalis = experiment: as above; conditions: repeated rinsing
Summary of the method: as §1

P. intermedia = experiment: as above; conditions: repeated rinsing
Summary of the method: as §1

S. gordonii = experiment: as above; conditions: repeated rinsing
Summary of the method: as §1

S. mitis = experiment: as above; conditions: repeated rinsing
S. oralis = experiment: as above; conditions: repeated rinsing
Summary of the method: as §1

S. sobrinus = experiment: as above; conditions: repeated rinsing
Summary of the method: as §1

[1] = test system: multi-species biofilm (beneficial/commensal species, periodontal pathogens, cariogenic pathogens); experiment: Multi-species biofilm composition, relative proportions and group changes
Summary of the method: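 Multi-species biofilms grown 24 h on calcium-deficient hydroxyapatite disks in the Amsterdam Active Adhesion model. Then rinsed 3 times daily for 3 min (RT, 250 rpm) over 3 days with 1 M NADG, α-D-lactose, D-(+)-trehalose or D-(+)-raffinose; PBS pH 5.7 without substrate as control. Species abundance given as mean ± SD (n = 3) log genome equivalents per mL.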

[2] = test system: P. intermedia virulence genes; experiment: Virulence gene expression in multi-species biofilm (SYBR RT-qPCR); conditions: relative to control = 1
Summary of the method: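 Multi-species biofilms grown 24 h on CAD-HA disks (37° C., microaerophilic), then rinsed 3×/day for 3 min over 3 days with substrate at 1 M or 1% (w/v) in PBS; PBS pH 5.7 as control. Expression of 33 genes by SYBR RT-qPCR, normalized to housekeeping genes; fold change by 2^-ΔΔCt, geometric mean (95% C.I.), n = 3.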

[3] = Table 3, separate experiments, concentration not given
[4] = lower part of Table 6d, head prints 1 M (lower part 1%(w/v))
[5] = upper part of Table 6d, substrate 1 M, n = 3

CC(=O)N[C@H]1C(O)O[C@H](CO)[C@@H](O)[C@@H]1O (stereo partly drawn) [NADG, N-acetyl-D-glucosamine]
absolute abundance of A. actinomycetemcomitans (Aa), mean ± SD log (Geq/mL) (A. actinomycetemcomitans; substrate 1% (w/v)): 9.11 ± 0.2 log (Geq/mL)
absolute abundance of A. actinomycetemcomitans (Aa), mean ± SD log (Geq/mL) (A. actinomycetemcomitans; substrate 1 M in PBS, n = 3): 8.15 ± 0.21^∗ log (Geq/mL)
absolute abundance of A. naeslundii (An), mean ± SD log (Geq/mL) (A. naeslundii; substrate 1% (w/v)): 7.71 ± 0.12 log (Geq/mL)
absolute abundance of A. naeslundii (An), mean ± SD log (Geq/mL) (A. naeslundii; substrate 1 M in PBS, n = 3): 5.41 ± 0.31^∗ log (Geq/mL)
absolute abundance of P. gingivalis (Pg), mean ± SD log (Geq/mL) (P. gingivalis; substrate 1% (w/v)): 7.14 ± 0.28 log (Geq/mL)
absolute abundance of P. gingivalis (Pg), mean ± SD log (Geq/mL) (P. gingivalis; substrate 1 M in PBS, n = 3): 4.43 ± 0.14^∗ log (Geq/mL)
absolute abundance of P. intermedia (Pi), mean ± SD log (Geq/mL) (P. intermedia; substrate 1% (w/v)): 8.17 ± 0.22 log (Geq/mL)
absolute abundance of P. intermedia (Pi), mean ± SD log (Geq/mL) (P. intermedia; substrate 1 M in PBS, n = 3): 4.09 ± 0.16^∗ log (Geq/mL)
absolute abundance of S. gordonii, mean ± SD log (Geq/mL) (S. gordonii; substrate 1% (w/v)): 8.33 ± 0.06 log (Geq/mL)
absolute abundance of S. gordonii, mean ± SD log (Geq/mL) (S. gordonii; substrate 1 M in PBS, n = 3): 9.80 ± 0.22^∗ log (Geq/mL)
absolute abundance of S. mitis, mean ± SD log (Geq/mL) (S. mitis; substrate 1% (w/v)): 2.65 ± 0.00 log (Geq/mL)
absolute abundance of S. mitis, mean ± SD log (Geq/mL) (S. mitis; substrate 1 M in PBS, n = 3): 3.38 ± 1.04 log (Geq/mL)
absolute abundance of S. oralis, mean ± SD log (Geq/mL) (S. oralis; substrate 1% (w/v)): 7.11 ± 0.14 log (Geq/mL)
absolute abundance of S. oralis, mean ± SD log (Geq/mL) (S. oralis; substrate 1 M in PBS, n = 3): 7.96 ± 0.59 log (Geq/mL)
absolute abundance of S. sobrinus, mean ± SD log (Geq/mL) (S. sobrinus; substrate 1% (w/v)): 4.87 ± 0.22 log (Geq/mL)
absolute abundance of S. sobrinus, mean ± SD log (Geq/mL) (S. sobrinus; substrate 1 M in PBS, n = 3): 3.46 ± 0.19^∗ log (Geq/mL)
relative proportion of beneficial or commensal species in biofilm ([1]; Table 1a, substrate 1 M): 97.86±1.11 % (Geq/mL) and 97.86 (+/- 1.11)^∗ % (Geq/mL)
relative proportion of cariogenic pathogens in biofilm ([1]; Table 1a, substrate 1 M): 0.68±0.33 % (Geq/mL) and 0.68 (+/- 0.33) % (Geq/mL)
relative proportion of periodontal pathogens in biofilm ([1]; Table 1a, substrate 1 M): 1.46±0.97 % (Geq/mL) and 1.46 (+/- 0.97)^∗ % (Geq/mL)
relative proportion of beneficials/commensals in biofilm [1, 3]: 60.07 (+/- 8.25) % (Geq/mL)
relative proportion of cariogenic pathogens in biofilm [1, 3]: 0.66±0.27 % (Geq/mL) and 0.66 (+/- 0.27^∗) % (Geq/mL)
relative proportion of periodontal pathogens in biofilm [1, 3]: 39.27 (+/- 7.98) % (Geq/mL)
fold change in DnaJ expression, geometric mean (95% C.I.) [2, 4]: 0.70 (0.50-0.99) fold
fold change in DnaK expression, geometric mean (95% C.I.) [2, 4]: 0.77 (0.34-1.77) fold
fold change in ECF expression, geometric mean (95% C.I.) [2, 4]: 0.48 (0.11-2.02) fold
fold change in GroES expression, geometric mean (95% C.I.) [2, 4]: 0.75 (0.49-1.14) fold
fold change in HtpG expression, geometric mean (95% C.I.) [2, 4]: 0.46 (0.22-0.94)* fold
fold change in KpsD expression, geometric mean (95% C.I.) [2, 4]: 0.78 (0.37-1.62) fold
fold change in adpc expression, geometric mean (95% C.I.) [2, 4]: 0.67 (0.64-0.69) fold
fold change in clpB expression, geometric mean (95% C.I.) [2, 4]: 1.06 (0.58-1.96) fold
fold change in inpA expression, geometric mean (95% C.I.) [2, 4]: 0.53 (0.24-1.17)* fold
fold change in phg expression, geometric mean (95% C.I.) [2, 4]: 0.69 (0.47-1.00) fold
fold change in DnaJ expression, geometric mean (95% C.I.) [2, 5]: 0.64 (0.35-1.16) fold
fold change in DnaK expression, geometric mean (95% C.I.) [2, 5]: 2.34 (1.23-4.43)* fold
fold change in ECF expression, geometric mean (95% C.I.) [2, 5]: 20.32 (4.81-85.88)^∗ fold
fold change in GroES expression, geometric mean (95% C.I.) [2, 5]: 1.86 (1.38-2.50) fold
fold change in HtpG expression, geometric mean (95% C.I.) [2, 5]: 3.40 (2.27-5.08)* fold
fold change in KpsD expression, geometric mean (95% C.I.) [2, 5]: 1.72 (0.62-4.72) fold
fold change in adpc expression, geometric mean (95% C.I.) [2, 5]: 2.65 (1.25-5.62)* fold
fold change in clpB expression, geometric mean (95% C.I.) [2, 5]: 2.03 (0.94-4.41) fold
fold change in inpA expression, geometric mean (95% C.I.) [2, 5]: 4.52 (4.14-4.94)^∗ fold
fold change in phg expression, geometric mean (95% C.I.) [2, 5]: 0.57 (0.38-0.85)* fold
